In DBAASP:
Values after ≈ are worked out from the molar mass of the structure shown.

Assays:
Assay in all cases: ≥ marks a high value that may be exact or a test limit, other limits are often not marked, values filed in µg/mL are converted to µM
[1] = system: Streptococcus pneumoniae ATCC 49619
[2] = system: Pseudomonas aeruginosa ATCC 19660
[3] = system: Staphylococcus epidermidis ATCC 51625
[4] = system: Pseudomonas aeruginosa ATCC 27853
[5] = system: Klebsiella aerogenes ATCC 13048
[6] = system: Enterococcus faecium ATCC 700221
[7] = system: Staphylococcus aureus ATCC 33591
[8] = system: Acinetobacter baumannii ATCC 17978D-5
[9] = system: Klebsiella oxytoca MTCC 2275
[10] = system: Salmonella enterica subsp. enterica serovar Typhimurium ATCC 14028
[11] = system: Citrobacter freundii MTCC 1658
[12] = system: Shigella boydii MTCC 11947
[13] = system: Proteus mirabilis MTCC 3158
[14] = system: Klebsiella aerogenes MTCC 111
[15] = system: Citrobacter koseri MTCC 1657
[16] = system: Staphylococcus aureus MTCC 3160
[17] = system: Vibrio cholerae MTCC 3904
[18] = system: Haemophilus influenzae MTCC 621
[19] = system: Alcaligenes faecalis MTCC 1937
[20] = system: Escherichia coli K12 MG1655
[21] = system: Pseudomonas aeruginosa MTCC 3542
[22] = system: Shigella flexneri MTCC 1457
[23] = system: Acinetobacter baumannii MTCC 9829
[24] = system: Enterococcus faecalis MTCC 439
[25] = system: Pluralibacter gergoviae MTCC 3826
[26] = system: Staphylococcus haemolyticus MTCC 3383
[27] = system: Klebsiella pneumoniae MTCC 7407
[28] = system: Alkalihalobacillus alcalophilus MTCC 860
[29] = system: Corynebacterium glutamicum MTCC 2679
[30] = system: Bordetella bronchiseptica MTCC 6837
[31] = system: Stenotrophomonas maltophilia MTCC 1890
[32] = system: Proteus vulgaris MTCC 1771
[33] = system: Salmonella enterica MTCC 9844
[34] = system: Achromobacter xylosoxidans
[35] = system: Stenotrophomonas maltophilia
Pseudomonas aeruginosa = system: Pseudomonas aeruginosa

SMILES	MIC [1] [µM]	MIC [2] [µM]	MIC [3] [µM]	MIC [4] [µM]	MIC [5] [µM]	MIC [6] [µM]	MIC [7] [µM]	MIC [8] [µM]	MIC [9] [µM]	MIC [10] [µM]	MIC [11] [µM]	MIC [12] [µM]	MIC [13] [µM]	MIC [14] [µM]	MIC [15] [µM]	MIC [16] [µM]	MIC [17] [µM]	MIC [18] [µM]	MIC [19] [µM]	MIC [20] [µM]	other results
C[C@H](NC(=O)[C@H](Cc1ccccc1)NC(=O)[C@H](C)NC(=O)[C@@H](N)Cc1ccccc1)C(=O)N[C@@H](Cc1ccccc1)C(=O)N[C@@H](CCCCN)C(=O)N[C@@H](C)C(=O)N[C@@H](Cc1ccccc1)C(=O)N[C@@H](CCCCN)C(=O)N[C@@H](CCCCN)C(=O)N[C@@H](C)C(=O)N[C@@H](Cc1ccccc1)C(=O)N[C@@H](CCCCN)C(=O)N[C@@H](CCCCN)C(=O)N[C@@H](Cc1ccccc1)C(=O)N[C@@H](CCCCN)C(=O)N[C@@H](CCCCN)C(=O)N[C@@H](C)C(=O)N[C@@H](Cc1ccccc1)C(=O)N[C@@H](CCCCN)C(=O)N[C@@H](CCCCN)C(=O)N[C@@H](C)C(=O)N[C@@H](Cc1ccccc1)C(=O)NCC(=O)N1CCC[C@H]1C(=O)N[C@@H](CS)C(=O)O [FAFAFKAFKKAFKKFKKAFKKAFGPC]	21.1 (≈ 64 µg/mL)	21.1 (≈ 64 µg/mL)	21.1 (≈ 64 µg/mL)	> 21.1	21.1 (≈ 64 µg/mL)	21.1 (≈ 64 µg/mL)	21.1 (≈ 64 µg/mL)	21.1 (≈ 64 µg/mL)	–	–	–	–	–	–	–	–	–	–	–	–	–
CC[C@H](C)[C@H](NC(=O)[C@H](CCCCN)NC(=O)[C@H](Cc1ccccc1)NC(=O)[C@H](C)NC(=O)[C@H](C)NC(=O)[C@H](CCCCN)NC(=O)[C@@H](NC(=O)[C@H](CC(C)C)NC(=O)CNC(=O)[C@H](CCCCN)NC(=O)[C@H](Cc1c[nH]c2ccccc12)NC(=O)[C@@H](N)Cc1ccccc1)C(C)C)C(=O)N[C@H](C(=O)N[C@@H](Cc1cnc[nH]1)C(=O)N[C@@H](C)C(=O)NCC(=O)N[C@@H](CO)C(=O)O)C(C)C [FWKGLVKAAFKIVHAGS]	–	–	–	–	–	–	–	–	≥ 34.4	> 68.8	≥ 68.8	≥ 68.8	≥ 68.8	≥ 68.8	≥ 34.4	≥ 68.8	≥ 68.8	≥ 68.8	≥ 68.8	≥ 34.4	MIC [21]: ≥ 68.8 µM; MIC [22]: ≥ 68.8 µM; MIC [23]: 8.61 µM (≈ 16 µg/mL); MIC [24]: ≥ 68.8 µM; MIC [25]: ≥ 68.8 µM; MIC [26]: 8.61 µM (≈ 16 µg/mL); MIC [27]: ≥ 68.8 µM; MIC [28]: 8.61 µM (≈ 16 µg/mL); MIC [29]: 1.08 µM (≈ 2 µg/mL); MIC [30]: 4.3 µM (≈ 8 µg/mL); MIC [31]: ≥ 68.8 µM; MIC [32]: ≥ 68.8 µM; MIC [33]: ≥ 68.8 µM
CC[C@H](C)[C@H](NC(=O)[C@H](CCCCN)NC(=O)[C@H](C)NC(=O)[C@H](CCCN=C(N)N)NC(=O)[C@H](CC(C)C)NC(=O)[C@H](CCCN=C(N)N)NC(=O)[C@@H](NC(=O)[C@H](CCCCN)NC(=O)[C@@H](NC(=O)[C@H](CCCCN)NC(=O)[C@H](C)NC(=O)[C@H](CCCN=C(N)N)NC(=O)[C@H](CC(C)C)NC(=O)[C@H](CCCCN)NC(=O)[C@H](Cc1ccccc1)NC(=O)CNC(=O)[C@@H](N)CCSC)[C@@H](C)CC)C(C)C)C(=O)N[C@@H](CCCCN)C(=O)N[C@@H](CC(C)C)C(=O)O [MGFKLRAKIKVRLRAKIKL]	28.2 (≈ 64 µg/mL)	28.2 (≈ 64 µg/mL)	1.76 (≈ 4 µg/mL)	> 28.2	28.2 (≈ 64 µg/mL)	28.2 (≈ 64 µg/mL)	28.2 (≈ 64 µg/mL)	28.2 (≈ 64 µg/mL)	–	–	–	–	–	–	–	–	–	–	–	–	–
CC[C@H](C)[C@H](NC(=O)[C@H](CCCCN)NC(=O)[C@H](CCC(N)=O)NC(=O)CNC(=O)[C@@H](NC(=O)[C@H](CCCCN)NC(=O)[C@H](CCCCN)NC(=O)[C@H](CC(C)C)NC(=O)[C@H](CCCCN)NC(=O)[C@H](CCC(=O)O)NC(=O)[C@H](CCCCN)NC(=O)[C@@H](NC(=O)[C@H](CCCCN)NC(=O)[C@H](CC(N)=O)NC(=O)[C@H](CCCN=C(N)N)NC(=O)[C@H](Cc1ccccc1)NC(=O)[C@H](CCCCN)NC(=O)[C@H](CCCN=C(N)N)NC(=O)[C@H](CC(C)C)NC(=O)[C@H](CCCN=C(N)N)NC(=O)[C@H](CCCCN)NC(=O)[C@@H](N)CCCN=C(N)N)[C@@H](C)CC)[C@@H](C)CC)C(=O)O [RKRLRKFRNKIKEKLKKIGQKI]	–	–	–	–	–	–	–	–	–	–	–	–	–	–	–	–	–	–	–	–	MIC [34]: 2.01 µM (≈ 5.66 µg/mL); MIC [35]: 4.03 µM (≈ 11.3 µg/mL); MIC (Pseudomonas aeruginosa): 1.42 µM (≈ 4 µg/mL)
CC[C@H](C)[C@H](NC(=O)[C@H](Cc1cnc[nH]1)NC(=O)[C@H](Cc1cnc[nH]1)NC(=O)[C@@H](NC(=O)[C@@H](NC(=O)[C@H](CCCCN)NC(=O)[C@@H](NC(=O)[C@@H](NC(=O)[C@H](CCCCN)NC(=O)[C@H](Cc1cnc[nH]1)NC(=O)[C@H](Cc1ccccc1)NC(=O)[C@H](C)NC(=O)[C@H](CO)NC(=O)[C@H](CC(C)C)NC(=O)[C@@H](N)C(C)C)C(C)C)[C@@H](C)CC)[C@@H](C)CC)[C@@H](C)CC)C(=O)N[C@@H](CO)C(=O)N[C@@H](Cc1cnc[nH]1)C(=O)N[C@@H](Cc1ccccc1)C(=O)O [VLSAFHKVIKIIHHISHF]	–	–	–	–	–	–	–	–	≥ 60.2	> 60.2	≥ 60.2	7.52 (≈ 16 µg/mL)	≥ 60.2	≥ 60.2	7.52 (≈ 16 µg/mL)	≥ 60.2	≥ 60.2	3.76 (≈ 8 µg/mL)	≥ 60.2	15 (≈ 32 µg/mL)	MIC [21]: ≥ 60.2 µM; MIC [22]: 3.76 µM (≈ 8 µg/mL); MIC [23]: 7.52 µM (≈ 16 µg/mL); MIC [24]: ≥ 60.2 µM; MIC [25]: ≥ 60.2 µM; MIC [26]: 15 µM (≈ 32 µg/mL); MIC [27]: ≥ 60.2 µM; MIC [28]: 15 µM (≈ 32 µg/mL); MIC [29]: 1.88 µM (≈ 4 µg/mL); MIC [30]: 1.88 µM (≈ 4 µg/mL); MIC [31]: ≥ 60.2 µM; MIC [32]: ≥ 60.2 µM; MIC [33]: 15 µM (≈ 32 µg/mL)
